Reference: the NIST ThermoML archive (doi:10.1007/s10765-006-0100-z)

Key:
[1] = 101 kPa, Liquid; for mass density: Vibrating tube method
[2] = xn = mol fraction of the nth substance listed; details: 101 kPa, Liquid; for mass density: Vibrating tube method

CC(C)(C)Cl [2-chloro-2-methylpropane]
[1]
Details | kinematic viscosity [m2/s] | mass density [kg/m3]
298.15 K | 5.68e-07 | 836.45
313.15 K | 4.77e-07 | 818.31

C1CCOCC1 [tetrahydropyran] + CCCCCl
[2], x1 = 1
Details | kinematic viscosity [m2/s] | mass density [kg/m3]
298.15 K | 9.1e-07 | 878.81
313.15 K | 7.57e-07 | 863.67

C1CCOCC1 [tetrahydropyran] + CCC(C)Cl
[2], x1 = 1
Details | kinematic viscosity [m2/s] | mass density [kg/m3]
298.15 K | 9.1e-07 | 878.81
313.15 K | 7.57e-07 | 863.67

CC(C)CCl [1-chloro-2-methylpropane]
[1]
Details | kinematic viscosity [m2/s] | mass density [kg/m3]
298.15 K | 4.93e-07 | 871.13
313.15 K | 4.29e-07 | 853.51

CC(C)(C)Cl [2-chloro-2-methylpropane] + C1CCOCC1
[2]
Details | kinematic viscosity [m2/s] | mass density [kg/m3]
298.15 K, x2 = 0 | 5.68e-07 | 836.45
298.15 K, x2 = 0.0324 | – | 838.08
298.15 K, x2 = 0.0614 | 5.84e-07 | –
298.15 K, x2 = 0.1075 | 5.96e-07 | –
298.15 K, x2 = 0.1086 | – | 842.07
298.15 K, x2 = 0.2097 | – | 847.11
298.15 K, x2 = 0.2173 | 6.27e-07 | –
298.15 K, x2 = 0.2891 | – | 851.05
298.15 K, x2 = 0.3205 | 6.57e-07 | –
298.15 K, x2 = 0.42 | 6.88e-07 | –
298.15 K, x2 = 0.4276 | – | 857.41
298.15 K, x2 = 0.496 | – | 860.32
298.15 K, x2 = 0.5176 | 7.2e-07 | –
298.15 K, x2 = 0.6107 | – | 864.98
298.15 K, x2 = 0.6155 | 7.54e-07 | –
298.15 K, x2 = 0.6483 | – | 866.46
298.15 K, x2 = 0.7156 | 7.91e-07 | –
298.15 K, x2 = 0.8093 | – | 872.39
298.15 K, x2 = 0.8277 | 8.35e-07 | –
298.15 K, x2 = 0.8606 | – | 874.22
298.15 K, x2 = 0.9097 | 8.7e-07 | –
298.15 K, x2 = 0.954 | – | 877.25
298.15 K, x2 = 0.9547 | 8.89e-07 | –
313.15 K, x2 = 0 | 4.77e-07 | 818.31
313.15 K, x2 = 0.0451 | 4.87e-07 | –
313.15 K, x2 = 0.0584 | – | 821.7
313.15 K, x2 = 0.0875 | – | 823.35
313.15 K, x2 = 0.0887 | 4.97e-07 | –
313.15 K, x2 = 0.1943 | – | 829.15
313.15 K, x2 = 0.1978 | 5.21e-07 | –
313.15 K, x2 = 0.3028 | – | 834.83
313.15 K, x2 = 0.3053 | 5.47e-07 | –
313.15 K, x2 = 0.3972 | 5.7e-07 | –
313.15 K, x2 = 0.4249 | – | 840.83
313.15 K, x2 = 0.4929 | – | 843.99
313.15 K, x2 = 0.5024 | 5.98e-07 | –
313.15 K, x2 = 0.6093 | – | 849.16
313.15 K, x2 = 0.6359 | 6.36e-07 | –
313.15 K, x2 = 0.7052 | – | 853.15
313.15 K, x2 = 0.7056 | 6.57e-07 | –
313.15 K, x2 = 0.796 | 6.86e-07 | –
313.15 K, x2 = 0.7988 | – | 856.89
313.15 K, x2 = 0.9063 | 7.23e-07 | –
313.15 K, x2 = 0.9097 | – | 860.95
313.15 K, x2 = 0.9526 | 7.4e-07 | –
313.15 K, x2 = 0.9614 | – | 862.64

C1CCOCC1 [tetrahydropyran] + CC(C)(C)Cl
[2], x1 = 1
Details | kinematic viscosity [m2/s] | mass density [kg/m3]
298.15 K | 9.1e-07 | 878.81
313.15 K | 7.57e-07 | 863.67

CC(C)CCl [1-chloro-2-methylpropane] + C1CCOCC1
[2]
Details | kinematic viscosity [m2/s] | mass density [kg/m3]
298.15 K, x2 = 0 | 4.93e-07 | 871.13
298.15 K, x2 = 0.048 | – | 871.69
298.15 K, x2 = 0.054 | 5.06e-07 | –
298.15 K, x2 = 0.1069 | 5.19e-07 | –
298.15 K, x2 = 0.1084 | – | 872.39
298.15 K, x2 = 0.2033 | 5.46e-07 | –
298.15 K, x2 = 0.212 | – | 873.53
298.15 K, x2 = 0.29 | – | 874.38
298.15 K, x2 = 0.311 | 5.78e-07 | –
298.15 K, x2 = 0.3951 | – | 875.37
298.15 K, x2 = 0.4126 | 6.11e-07 | –
298.15 K, x2 = 0.504 | 6.45e-07 | –
298.15 K, x2 = 0.5062 | – | 876.3
298.15 K, x2 = 0.595 | 6.82e-07 | –
298.15 K, x2 = 0.6273 | – | 877.23
298.15 K, x2 = 0.6897 | – | 877.63
298.15 K, x2 = 0.6954 | 7.27e-07 | –
298.15 K, x2 = 0.8028 | 7.83e-07 | –
298.15 K, x2 = 0.8111 | – | 878.26
298.15 K, x2 = 0.9066 | 8.46e-07 | –
298.15 K, x2 = 0.9088 | – | 878.68
298.15 K, x2 = 0.952 | – | 878.79
298.15 K, x2 = 0.9578 | 8.8e-07 | –
313.15 K, x2 = 0 | 4.29e-07 | 853.51
313.15 K, x2 = 0.0432 | – | 854.17
313.15 K, x2 = 0.054 | 4.4e-07 | –
313.15 K, x2 = 0.0934 | – | 854.93
313.15 K, x2 = 0.1069 | 4.51e-07 | –
313.15 K, x2 = 0.1923 | – | 856.35
313.15 K, x2 = 0.2033 | 4.72e-07 | –
313.15 K, x2 = 0.3025 | – | 857.83
313.15 K, x2 = 0.311 | 4.97e-07 | –
313.15 K, x2 = 0.406 | – | 859.08
313.15 K, x2 = 0.4126 | 5.23e-07 | –
313.15 K, x2 = 0.5018 | – | 860.14
313.15 K, x2 = 0.504 | 5.5e-07 | –
313.15 K, x2 = 0.595 | 5.8e-07 | –
313.15 K, x2 = 0.6079 | – | 861.19
313.15 K, x2 = 0.6954 | 6.16e-07 | –
313.15 K, x2 = 0.7238 | – | 862.24
313.15 K, x2 = 0.7895 | – | 862.78
313.15 K, x2 = 0.8028 | 6.6e-07 | –
313.15 K, x2 = 0.8874 | – | 863.42
313.15 K, x2 = 0.9066 | 7.07e-07 | –
313.15 K, x2 = 0.9463 | – | 863.68
313.15 K, x2 = 0.9578 | 7.33e-07 | –
